SMILES strings stand for the structures. Where “and” joins values, the source holds several entries; their conditions need not be identical. Identical values can stand only once.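 1) Cells in 96-well plates. 2) Compound, 48 h, 5 concentrations. 3) Linear interpolation between surrounding doses. 4) Unreached endpoint = highest concentration. Here, GI50 denotes the concentration required for 50% inhibition of growth. TGI: concentration producing complete growth inhibition.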

What all share (test): NCI anticancer screen, dose series, 48 h
For test [1], the system named is SW-620 colon.
Test [2] concerns UACC-62 melanoma.
The test system of test [3] is SNB-78 CNS.
The subject of test [4] is NCI-H226 lung.
The subject of test [5] is HCT-116 colon.
Test [6] concerns SNB-19 CNS.
Test [7] relates to UO-31 renal.
Test [8] concerns A498 renal.
The test system of test [9] is RXF 393 renal.
The subject of test [10] is UACC-257 melanoma.

Regarding `CC(=O)OCC(OC(C)=O)C(OC(C)=O)C(OC(C)=O)C(=O)CNn1c(-c2ccccc2Cl)nc2ccccc2c1=O` (configuration not stated), the TGI in [1], in test [2], in test [3], in [4], in test [5] and in test [6] was over 100 µM in each case. For the same molecule, the TGI in test [7], in test [8], in test [9] and in test [10] was over 100 µM each time.

For the molecule `Cc1ccc(-c2cc(-c3ccco3)c(C#N)c(=O)n2C2OC(OC(=O)c3ccccc3)C(OC(=O)c3ccccc3)C2OC(=O)c2ccccc2)cc1` (configuration not stated), the TGI in test [1], in [2], in test [3], in test [5], in [7] and in test [8] was over 100 µM throughout. The TGI in test [9] was found to be 88.4 µM.

Take `O=[N+]([O-])c1cnn(C2=CNc3ccccc3N=C2)c1`: the TGI in [2], in test [3], in test [4], in test [5], in test [6] and in test [7] was over 100 µM in each case. In addition, the TGI in test [9] and in test [10] was over 100 µM in each case.

Consider `Cc1cccc(-n2c(=S)[nH]c3c(sc(=O)n3-c3ccccc3C)c2=O)c1`, for which the TGI in test [1], in test [2], in test [3], in test [4], in test [5] and in [6] was over 100 µM throughout. Further, the TGI in test [7], in test [8], in test [9] and in test [10] was over 100 µM throughout.

`Cc1cccc(C)c1NC(=O)C1C(=O)N(c2c(C)cccc2C)C(=O)/C1=N\NC(N)=S` (configuration not stated): the TGI in test [1], in [2], in test [3], in test [5], in test [6] and in [7] was over 100 µM throughout. Besides, the TGI in [8], in [9] and in test [10] was over 100 µM in each case.

Turning to `COC(=O)C(CC(=O)Nc1ccc(C)cc1)C(=O)C(=O)Nc1ccccc1C(C)C` (configuration not stated), the TGI was 41.7 µM in [1]; over 100 µM in test [2]; over 100 µM in [3]; over 100 µM in [4]; over 100 µM in test [5]; over 100 µM in [6]. Besides, the TGI in [7], in [8], in test [9] and in [10] was over 100 µM in each case.

For `CCOC(=O)c1s/c(=N\Nc2nc3ccccc3cc2C2OCCO2)n(Cc2ccccc2)c1C`, the TGI in test [1], in test [2], in test [3], in test [4], in [5] and in test [6] was over 100 µM each time. Further, the TGI in test [7], in [8], in test [9] and in test [10] was over 100 µM each time.

For `N#CCCN(CCC#N)c1ccc(C(Sc2ccccc2)C(NC(=O)c2cc([N+](=O)[O-])ccc2Cl)C(=O)Sc2ccccc2)cc1` (configuration not stated), the GI50 in test [1] was 3.77 µM; in [2], 2.58 µM; in test [3] it was 2.97 µM; in test [5], 1.85 µM; in [6], 3.98 µM; in test [7], 1.11 µM. The results for the GI50 in test [9] and in test [10] were 0.415 µM and 3.06 µM, respectively. Further, the TGI in [1] is 14.3 µM; in test [2], 6.02 µM and 10.5 µM; in test [3], 34.5 µM; in test [4] it was 5.16 µM and 5.01 µM; in test [5] it was 5.51 µM and 5.62 µM; in test [6], 18.6 µM. For the same molecule, the TGI in [7] is 4.77 µM; in [9], 5.81 µM and 3.28 µM; in test [10], 14.3 µM.

For the molecule `CCOC(=O)C1(C#N)C(c2ccccc2)CC(O)(c2ccc(Cl)cc2)C(C(=O)c2ccc(Cl)cc2)C1c1ccccc1` (configuration not stated), the TGI in test [1] is over 100 µM; in [2], over 100 µM; in [3], over 100 µM; in [4] it was over 100 µM; in test [5], over 100 µM; in test [6] it was 90.8 µM. The TGI in [7], in test [9] and in [10] was over 100 µM each time.

For the molecule `C/C(CCc1ccccc1)=N\NC(N)=S`, the TGI in test [1], in test [2], in test [3], in [4], in test [5] and in test [7] was over 100 µM throughout. In addition, the TGI in test [8], in test [9] and in test [10] was over 100 µM each time.

For the molecule `COC(=O)C1=C(C(=O)OC)SC(=CC#CC=C2SC(C(=O)OC)=C(C(=O)OC)S2)S1`, the TGI in test [1] was over 52 µM; in [2] it was 29.1 µM; in [3], 48.6 µM; in [4], 35.4 µM; in [5], 32.3 µM; in test [6], 26.2 µM. Also, the TGI in test [7] is 14.1 µM; in [8], 34.7 µM; in [10], over 100 µM.

Turning to `O=C(N/N=C(/CCN1CCCC1)CC(c1ccccc1)c1c(O)c2ccccc2oc1=O)c1ccncc1` (configuration not stated), the TGI in test [1], in [2], in [3], in [4], in test [5] and in test [6] was over 100 µM each time. In addition, the TGI in [7], in test [8], in [9] and in test [10] was over 100 µM each time.

For `CN1CC[C@]2(C)c3ccc(O)cc3CC3CCCC1C32C` (some centres not stated), the TGI in test [2], in test [3], in test [4], in test [5], in test [6] and in [7] was over 100 µM in each case. Further, the TGI in test [8], in test [9] and in test [10] was over 100 µM each time.

As for `Cc1cc(C)c(C(=O)c2no[n+]([O-])c2C(=O)c2c(C)cc(C)c(Br)c2C)c(C)c1Br`, the TGI was 26.9 µM in [1]; 23.7 µM in test [2]; 70.8 µM in test [3]; 31.6 µM in [4]; 21.9 µM in test [5]; 29.1 µM in [6]. For the same molecule, the TGI in test [7] was determined as 20.2 µM; in test [8] it was 32.6 µM; in test [9], 19.9 µM.

Consider `Cc1ccc(-c2cc(-c3ccccc3)c(C#N)c(=O)n2C2OC(CO)C(O)C(O)C2O)cc1` (configuration not stated), for which the TGI in test [1], in test [2], in test [3], in [4], in test [5] and in test [6] was over 100 µM in each case. Also, the TGI in test [7], in test [8], in [9] and in test [10] was over 100 µM throughout.

Turning to `NC(=S)NNc1c([N+](=O)[O-])cnn(-c2ccccc2)c1=O`, the TGI stood at 26.4 µM in [1]; 24.4 µM in [2]; 48.3 µM in test [3]; 35 µM in [4]; 22.1 µM in test [5]; 33.9 µM in test [6]. The TGI was 38 µM in test [7], 33.9 µM in [9] and 38.8 µM in [10].

For `COc1ccc(/C=C2\CCCC(C(NO)c3ccc(OC)cc3)C2=NO)cc1` (configuration not stated), the TGI in [1] was over 100 µM; in test [2], over 100 µM; in test [3] it was over 100 µM; in test [5], over 100 µM; in test [6], over 100 µM; in test [7], 75.7 µM. In addition, the TGI in test [8] is over 100 µM; in test [9], 96.7 µM; in test [10] it was over 100 µM.

For the molecule `COC1OC(CO)C(O)C1N` (configuration not stated), the TGI in test [1], in test [2], in test [3], in test [4], in [5] and in [6] was over 100 µM throughout. Moreover, the TGI in test [8], in test [9] and in [10] was over 100 µM in each case.

For `CS(=O)(=O)CSCSSCS(C)(=O)=O`, the TGI in test [1] is 34.3 µM; in test [2], 47 µM; in test [3], over 100 µM; in [4] it was over 100 µM; in test [5] it was over 100 µM; in [6], over 100 µM. Further, the TGI in test [7] is over 58.3 µM; in test [8] it was over 100 µM; in [9], 36.1 µM; in [10] it was over 100 µM.

Turning to `CN(C)CC1CCC/C1=N\O` (configuration not stated), the TGI in [1], in test [2], in test [3], in test [4], in test [5] and in test [7] was over 100 µM in each case. In addition, the TGI in test [8], in test [9] and in test [10] was over 100 µM each time.

Regarding `OC1(c2ccccc2)OC(C#Cc2ccccc2)(c2ccccc2)c2ccccc21` (configuration not stated), the TGI in [1] is 15.4 µM; in test [2], 3.84 µM; in test [3], 23.2 µM; in [4], 7.98 µM; in test [5], 3.07 µM; in test [6], 26.3 µM. The TGI in test [7] is 4.05 µM; in test [8] it was 10.1 µM; in test [9], 5.58 µM; in [10], 20.9 µM.

Consider `CC1=C(C(=O)Nc2cccc(Cl)c2)C(c2ccccc2F)C(C(=O)Nc2cccc(Cl)c2)=C(C)N1`, for which the TGI is 64.6 µM in test [1]; 60.9 µM in [3]; 26 µM in [4]; over 100 µM in [6]; 20.8 µM in [7]; 38.6 µM in test [8]. The TGI turned out to be 22.4 µM in test [9] and 22.3 µM in test [10].

As to `NCCCCNc1ccc2c(=O)[nH][nH]c(=O)c2c1`, the TGI in test [1], in [2], in test [3], in test [4], in [5] and in test [6] was over 100 µM each time. Further, the TGI in test [7], in test [8], in test [9] and in test [10] was over 100 µM in each case.

On to `COC1C2C=CC(C2)[C@H]1[N+](=O)[O-]` (some centres not stated), for which the TGI in test [1], in [2], in [3], in test [4], in test [5] and in [6] was over 100 µM in each case. In addition, the TGI in test [7], in [8], in [9] and in test [10] was over 100 µM each time.

For the molecule `C/C=C1\NC(=O)[C@H]2CSSCCC=C[C@H](CC(=O)N[C@H](C(C)C)C(=O)N2)OC(=O)[C@H](C(C)C)NC1=O`, the GI50 in test [1] was under 0.01 µM; in [2], under 0.01 µM; in test [3] it was 0.0123 µM; in test [4] it was under 0.01 µM; in test [5], under 0.01 µM; in test [6], under 0.01 µM. The GI50 was 0.026 µM and 0.0145 µM in test [7]; under 0.01 µM in [8]; under 0.01 µM in test [9]; < 0.01 µM and 0.000137 µM in [10]. Further, the TGI was < 0.01 µM and 0.0195 µM and < 0.0161 µM in test [1]; < 0.01 µM and 0.0113 µM in test [2]; 0.268 µM and 0.0317 µM and < 0.0312 µM in [4]; < 0.01 µM and 0.0145 µM and 0.0193 µM in [5]; 0.0301 µM and 0.0538 µM in test [6]; < 0.01 µM and 0.000402 µM in test [8]. Besides, the TGI in [9] is 0.0101 µM and 0.00253 µM.

These data come from PubChem BioAssay (NCI).
